Results reported in ChEMBL document CHEMBL3885861, “Open TG-GATES”.

Species on record: Rattus norvegicus
Assay: Open TG-GATES - Regimen: Single
Type: toxicity, organism-based, Sprague-Dawley
Set-up: regimen Single, gender Male, age 6 weeks
Conditions: in vivo, po, 10 mg/kg, route gavage, dose level Middle; for APTT / Bas / Eos / Fbg / Hb / Ht / Lym / MCH / MCHC / MCV / Mono / Neu / PT / Plat / RBC / Ret / WBC: tissue Blood; for KIDNEY_L / KIDNEY_R / KIDNEY_TOTAL: tissue Kidney; for LIVER: tissue Liver; for A/G / ALP / ALT / AST / BUN / CRE / Ca / Cl / DBIL / GLC / IP / K / LDH / Na / PL / RALB / TBIL / TC / TG / TP / gamma-GTP: tissue Plasma

Cn1cnc([N+](=O)[O-])c1Sc1ncnc2nc[nH]c12 [AZATHIOPRINE]
TERMINAL_BW (3 h): 192.8 g
APTT (3 h): 22.9 s
Bas (3 h): 0%
Eos (3 h): 0.8%
Fbg (3 h): 277.6 mg/dL
Hb (3 h): 13.1 g/dL
Ht (3 h): 39.1%
Lym (3 h): 77.8%
MCH (3 h): 21.6 pg
MCHC (3 h): 33.7%
MCV (3 h): 64.2 fL
Mono (3 h): 2.2%
Neu (3 h): 18%
PT (3 h): 15.7 s
Plat (3 h): 117.8 x10_4/uL
RBC (3 h): 609.8 x10_4/ul
Ret (3 h): 9.7%
WBC (3 h): 65 x10_2/uL
KIDNEY_L (3 h): 0.9 g
KIDNEY_R (3 h): 0.9 g
KIDNEY_TOTAL (3 h): 1.7 g
LIVER (3 h): 8.5 g
A/G (3 h): 1.1
ALP (3 h): 1723.6 IU/L
ALT (3 h): 47.6 IU/L
AST (3 h): 78 IU/L
BUN (3 h): 11.4 mg/dL
CRE (3 h): 0.2 mg/dL
Ca (3 h): 10.6 mg/dL
Cl (3 h): 105.6 meq/L
DBIL (3 h): 0.006 mg/dL
GLC (3 h): 189.4 mg/dL
IP (3 h): 9.1 mg/dL
K (3 h): 4.1 meq/L
LDH (3 h): 211.4 IU/L
Na (3 h): 141.8 meq/L
PL (3 h): 133.2 mg/dL
RALB (3 h): 2.9 g/dL
TBIL (3 h): 0.008 mg/dL
TC (3 h): 77 mg/dL
TG (3 h): 57.6 mg/dL
TP (3 h): 5.5 g/dL
gamma-GTP (3 h): 1 IU/L
TERMINAL_BW (6 h): 189.2 g
APTT (6 h): 21.4 s
Bas (6 h): 0%
Eos (6 h): 1%
Fbg (6 h): 308.4 mg/dL
Hb (6 h): 12.8 g/dL
Ht (6 h): 39%
Lym (6 h): 72%
MCH (6 h): 21.4 pg
MCHC (6 h): 32.9%
MCV (6 h): 65.2 fL
Mono (6 h): 2.8%
Neu (6 h): 22.8%
PT (6 h): 15.6 s
Plat (6 h): 124.6 x10_4/uL
RBC (6 h): 598.6 x10_4/ul
Ret (6 h): 9.2%
WBC (6 h): 73.6 x10_2/uL
KIDNEY_L (6 h): 0.9 g
KIDNEY_R (6 h): 0.9 g
KIDNEY_TOTAL (6 h): 1.8 g
LIVER (6 h): 8.1 g
A/G (6 h): 1.2
ALP (6 h): 1521.2 IU/L
ALT (6 h): 41.8 IU/L
AST (6 h): 70.6 IU/L
BUN (6 h): 8.8 mg/dL
CRE (6 h): 0.1 mg/dL
Ca (6 h): 10.5 mg/dL
Cl (6 h): 107.2 meq/L
DBIL (6 h): 0.004 mg/dL
GLC (6 h): 175.4 mg/dL
IP (6 h): 9.1 mg/dL
K (6 h): 4.6 meq/L
LDH (6 h): 249.2 IU/L
Na (6 h): 140.8 meq/L
PL (6 h): 120.6 mg/dL
RALB (6 h): 2.9 g/dL
TBIL (6 h): 0.01 mg/dL
TC (6 h): 72.6 mg/dL
TG (6 h): 50.4 mg/dL
TP (6 h): 5.4 g/dL
gamma-GTP (6 h): 1 IU/L
TERMINAL_BW (9 h): 183.9 g
APTT (9 h): 22.4 s
Bas (9 h): 0%
Eos (9 h): 1%
Fbg (9 h): 304.8 mg/dL
Hb (9 h): 12.9 g/dL
Ht (9 h): 38.9%
Lym (9 h): 74.8%
MCH (9 h): 21.8 pg
MCHC (9 h): 33.2%
MCV (9 h): 65.6 fL
Mono (9 h): 2.4%
Neu (9 h): 20.6%
PT (9 h): 15.3 s
Plat (9 h): 114.2 x10_4/uL
RBC (9 h): 592.2 x10_4/ul
Ret (9 h): 9%
WBC (9 h): 83.3 x10_2/uL
KIDNEY_L (9 h): 0.9 g
KIDNEY_R (9 h): 0.9 g
KIDNEY_TOTAL (9 h): 1.7 g
LIVER (9 h): 7.7 g
A/G (9 h): 1.2
ALP (9 h): 1473.8 IU/L
ALT (9 h): 32.4 IU/L
AST (9 h): 64.8 IU/L
BUN (9 h): 10 mg/dL
CRE (9 h): 0.1 mg/dL
Ca (9 h): 10.4 mg/dL
Cl (9 h): 106.6 meq/L
DBIL (9 h): 0 mg/dL
GLC (9 h): 186 mg/dL
IP (9 h): 9.6 mg/dL
K (9 h): 4.2 meq/L
LDH (9 h): 223.2 IU/L
Na (9 h): 141 meq/L
PL (9 h): 145 mg/dL
RALB (9 h): 3.1 g/dL
TBIL (9 h): 0.012 mg/dL
TC (9 h): 85.2 mg/dL
TG (9 h): 47 mg/dL
TP (9 h): 5.6 g/dL
gamma-GTP (9 h): 1 IU/L
TERMINAL_BW (24 h): 199.9 g
APTT (24 h): 20.9 s
Bas (24 h): 0%
Eos (24 h): 1%
Fbg (24 h): 309 mg/dL
Hb (24 h): 13.4 g/dL
Ht (24 h): 39.3%
Lym (24 h): 81.6%
MCH (24 h): 21.7 pg
MCHC (24 h): 34.1%
MCV (24 h): 63.9 fL
Mono (24 h): 2%
Neu (24 h): 14.4%
PT (24 h): 15.4 s
Plat (24 h): 120.4 x10_4/uL
RBC (24 h): 616.2 x10_4/ul
Ret (24 h): 7.9%
WBC (24 h): 54.7 x10_2/uL
KIDNEY_L (24 h): 0.9 g
KIDNEY_R (24 h): 0.9 g
KIDNEY_TOTAL (24 h): 1.8 g
LIVER (24 h): 9.2 g
A/G (24 h): 1.3
ALP (24 h): 1643.2 IU/L
ALT (24 h): 40.2 IU/L
AST (24 h): 71.4 IU/L
BUN (24 h): 15.4 mg/dL
CRE (24 h): 0.1 mg/dL
Ca (24 h): 10.8 mg/dL
Cl (24 h): 106.8 meq/L
DBIL (24 h): 0.002 mg/dL
GLC (24 h): 190.6 mg/dL
IP (24 h): 7.6 mg/dL
K (24 h): 4.1 meq/L
LDH (24 h): 203.8 IU/L
Na (24 h): 143 meq/L
PL (24 h): 160.2 mg/dL
RALB (24 h): 3.1 g/dL
TBIL (24 h): 0.006 mg/dL
TC (24 h): 90 mg/dL
TG (24 h): 82.6 mg/dL
TP (24 h): 5.6 g/dL
gamma-GTP (24 h): 1 IU/L
